# Results reported in patent US6737383B1, “Herbicidal oxadiazolidines” (priority 1999, dated 2004).
# Key:
# rice = assay: Test B flood test rice; format: in vivo, Oryza sativa
# How it was run: (§1)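 Read-out is a visual response score from 0 (no effect) to 10 (complete control), assigned by comparison with untreated controls. Treatment was applied at the 2-leaf stage, and plants stayed in the greenhouse for twelve to sixteen days before scoring.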
# wheat = assay: Test B pre/postemergence wheat; format: in vivo, Triticum aestivum
# How it was run: (§2)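 Herbicidal effect was estimated by eye on a ten-point control scale after plants spent twelve to sixteen days in a greenhouse following soil or foliar treatment. Foliar sprays targeted plants at one to four leaves; all doses were formulated in a non-phytotoxic solvent with surfactant.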
# duck salad = assay: Test B flood test duck salad; format: in vivo, Heteranthera limosa
# How it was run: as §1
# bedstraw = assay: Test B pre/postemergence bedstraw; format: in vivo, Galium aparine
# How it was run: as §2
# [1] = Rate 62 g/ha, headed Pre-emergence (flood test species), scale 0 to 10 (0 no effect, 10 complete control)
# [2] = Rate 125 g/ha, Pre-emergence, flood test species, scale 0 to 10 where 0 is no effect and 10 is complete control
# [3] = Rate 250 g/ha, Pre-emergence, flood-test species, scale 0 to 10, 0 is no effect, 10 is complete control
# [4] = Rate 500 g/ha, Pre-emergence, flood test species, scale 0 to 10 (0 no effect, 10 complete control)
# [5] = Preemergence, Rate 62 g/ha, scale of 0 to 10 where 0 is no effect and 10 is complete control
# [6] = Preemergence, Rate 250 g/ha, scale of 0 to 10 where 0 is no effect and 10 is complete control
# [7] = Preemergence, Rate 500 g/ha, scale of 0 to 10 where 0 is no effect and 10 is complete control
# [8] = Rate 125 g/ha, Postemergence, scale of 0 to 10 where 0 is no effect and 10 is complete control
# [9] = Rate 125 g/ha, Preemergence, scale of 0 to 10 where 0 is no effect and 10 is complete control
# [10] = Rate 250 g/ha, Postemergence, scale of 0 to 10 where 0 is no effect and 10 is complete control
# [11] = Rate 500 g/ha, Postemergence, scale 0 to 10, 0 no effect, 10 complete control
# [12] = Rate 62 g/ha, Postemergence, scale of 0 to 10 where 0 is no effect and 10 is complete control
# [13] = Rate 62 g/ha, Postemergence, scale 0 to 10 (0 no effect, 10 complete control)
# [14] = Postemergence, Rate 125 g/ha, scale 0 to 10, 0 is no effect, 10 is complete control
# [15] = Postemergence (flood test), Rate 125 g/ha, scale 0 to 10, 0 is no effect, 10 is complete control
# [16] = Rate 62 g/ha, Postemergence (flood test species), scale of 0 to 10 where 0 is no effect and 10 is complete control
# [17] = Rate 500 g/ha, listed under Postemergence (flood test species), scale 0 to 10, 0 no effect, 10 complete control
# [18] = Preemergence, Rate 62 g/ha, scale 0 to 10 (0 no effect, 10 complete control)
# [19] = flood test species, listed under Postemergence, Rate 250 g/ha, scale 0 to 10, 0 is no effect, 10 is complete control
# [20] = Postemergence, Rate 250 g/ha, scale 0 to 10, 0 is no effect, 10 is complete control
Compound,Rice plant response rating (rice; [1]),Rice plant response rating (rice; [2]),Rice plant response rating (rice; [3]),Rice plant response rating (rice; [4]),Wheat plant response rating (wheat; [5]),Wheat plant response rating (wheat; [6]),Ducksalad plant response rating (duck salad; [1]),Ducksalad plant response rating (duck salad; [2]),Ducksalad plant response rating (duck salad; [3]),Ducksalad plant response rating (duck salad; [4]),Bedstraw plant response rating (bedstraw; [6]),Bedstraw plant response rating (bedstraw; [12]),"Plant response rating, Bedstraw (bedstraw; [10])","Wheat plant response rating (0 to 10 scale) (wheat; Preemergence, Rate 125 g/ha)",Wheat plant response rating (wheat; [7]),"Bedstraw plant response rating (0 to 10 scale) (bedstraw; Preemergence, Rate 125 g/ha)",Bedstraw plant response rating (bedstraw; [7]),"Plant response rating, Wheat (wheat; [14])","Plant response rating, Wheat (wheat; [11])","Plant response rating, Bedstraw (bedstraw; [14])",other results
CC(C)N(C(=O)n1oc(=O)n(-c2ccsc2)c1=O)c1ccc(F)cc1 [Compound 272],0,0,0,0,0,0,0,0,0,0,0,0,0,,,,,,,,"Plant response rating, Wheat (wheat; [7]): 0; Wheat plant response rating (wheat; [8]): 0; Wheat plant response rating (wheat; [9]): 0; Plant response rating, Wheat (wheat; [10]): 0; Wheat plant response rating (wheat; [11]): 0; Bedstraw plant response rating (bedstraw; [5]): 0; Plant response rating, Bedstraw (bedstraw; [7]): 3; Bedstraw plant response rating (bedstraw; [8]): 0; Bedstraw plant response rating (bedstraw; [9]): 0; Bedstraw plant response rating (bedstraw; [11]): 4"
CC(C)N(C(=O)n1oc(=O)n(C[Si](C)(C)C)c1=O)c1ccc(F)cc1 [Compound 294],0,0,0,0,0,0,0,0,0,0,0,,8,,,,,,,,"Plant response rating, Wheat (wheat; [7]): 0; Wheat plant response rating (wheat; [13]): 0; Wheat plant response rating (wheat; [8]): 0; Wheat plant response rating (wheat; [9]): 0; Plant response rating, Wheat (wheat; [10]): 0; Bedstraw plant response rating (bedstraw; [5]): 0; Plant response rating, Bedstraw (bedstraw; [7]): 0; Bedstraw plant response rating (bedstraw; [13]): 3; Bedstraw plant response rating (bedstraw; [8]): 6; Bedstraw plant response rating (bedstraw; [9]): 0; Bedstraw plant response rating (bedstraw; [11]): 9"
CCN(C(=O)n1oc(=O)n(Cc2ccco2)c1=O)C1CCCCC1 [Compound 312],0,0,0,0,0,0,0,0,0,0,0,,0,0,0,0,0,,,,"Wheat plant response rating (wheat; [13]): 0; Wheat plant response rating (wheat; [8]): 0; Plant response rating, Wheat (wheat; [10]): 0; Bedstraw plant response rating (bedstraw; [5]): 0; Bedstraw plant response rating (bedstraw; [13]): 0; Bedstraw plant response rating (bedstraw; [8]): 0"
CC(C)N(C(=O)n1oc(=O)n(Cc2nnsc2Cl)c1=O)c1ccccc1 [Compound 321],0,0,0,0,0,0,0,0,0,0,,,8,0,0,,3,,,,"Wheat plant response rating (wheat; [13]): 0; Wheat plant response rating (wheat; [8]): 0; Plant response rating, Wheat (wheat; [10]): 0; Bedstraw plant response rating (bedstraw; [5]): 0; Bedstraw plant response rating (bedstraw; [13]): 0; Bedstraw plant response rating (bedstraw; [8]): 4"
Cc1ccccc1-n1c(=O)on(C(=O)N(c2ccc(Cl)cc2)C(C)C2CC2)c1=O (centres unmarked) [Compound 330],0,0,0,0,0,0,0,0,0,0,0,,,0,0,0,0,0,0,0,Wheat plant response rating (wheat; [13]): 0; Bedstraw plant response rating (bedstraw; [13]): 0
CC(C)N(C(=O)n1oc(=O)n(C2CCCCCC2)c1=O)c1ccc(F)cc1F [Compound 342],,,,,,0,,,,,0,4,5,0,3,0,,0,0,5,"Plant response rating, Rice (rice; [15]): 0; Rice plant response rating (rice; [16]): 0; Plant response rating, Rice (rice; [17]): 0; Plant response rating, Wheat (wheat; [18]): 0; Wheat plant response rating (wheat; [12]): 0; Plant response rating, Ducksalad (duck salad; [15]): 0; Ducksalad plant response rating (duck salad; [16]): 0; Plant response rating, Ducksalad (duck salad; [17]): 4; Plant response rating, Bedstraw (bedstraw; [18]): 0; Plant response rating, Bedstraw (bedstraw; [11]): 5"
CC(C)N(C(=O)n1oc(=O)n(C2CCCO2)c1=O)c1ccc(F)cc1 (centres unmarked) [Compound 345],,,,,,0,,,,,0,0,0,0,0,0,0,0,0,0,"Plant response rating, Rice (rice; [15]): 0; Rice plant response rating (rice; [16]): 0; Plant response rating, Rice (rice; [17]): 0; Plant response rating, Wheat (wheat; [18]): 0; Wheat plant response rating (wheat; [12]): 0; Plant response rating, Ducksalad (duck salad; [15]): 0; Ducksalad plant response rating (duck salad; [16]): 0; Plant response rating, Ducksalad (duck salad; [17]): 0; Plant response rating, Bedstraw (bedstraw; [18]): 0; Plant response rating, Bedstraw (bedstraw; [11]): 0"
Cc1cccc(C(C)(C)C)c1-n1c(=O)on(C(=O)N(c2ccc(F)cc2)C(C)C)c1=O [Compound 359],,,,,,0,,,,,0,0,0,0,0,0,0,0,2,0,"Plant response rating, Rice (rice; [15]): 0; Rice plant response rating (rice; [16]): 0; Plant response rating, Rice (rice; [17]): 0; Plant response rating, Wheat (wheat; [18]): 0; Wheat plant response rating (wheat; [12]): 0; Plant response rating, Ducksalad (duck salad; [15]): 0; Ducksalad plant response rating (duck salad; [16]): 0; Plant response rating, Ducksalad (duck salad; [17]): 0; Plant response rating, Bedstraw (bedstraw; [18]): 0; Plant response rating, Bedstraw (bedstraw; [11]): 0"
CCN(CC)C(=O)n1oc(=O)n(-c2ccccc2C)c1=O [Compound 364],,,,,,0,,,,,0,0,,0,0,0,3,0,0,0,"Plant response rating, Rice (rice; [15]): 0; Rice plant response rating (rice; [16]): 0; Plant response rating, Rice (rice; [17]): 0; Plant response rating, Rice (rice; [19]): 0; Plant response rating, Wheat (wheat; [20]): 0; Plant response rating, Wheat (wheat; [18]): 0; Wheat plant response rating (wheat; [12]): 0; Plant response rating, Ducksalad (duck salad; [15]): 0; Ducksalad plant response rating (duck salad; [16]): 0; Plant response rating, Ducksalad (duck salad; [17]): 0; Plant response rating, Ducksalad (duck salad; [19]): 0; Plant response rating, Bedstraw (bedstraw; [20]): 0; Plant response rating, Bedstraw (bedstraw; [18]): 0; Plant response rating, Bedstraw (bedstraw; [11]): 0"
